Test results taken from US20060063784A1, “Method of using substituted pyrazolo [1,5-a] pyrimidines” (priority 2004, published 2006).
Like-named read-outs stand apart in the source and are kept apart here.

Legend:
[1] = tested on: LoVo Colon cell line; experiment: Cytotoxicity assay using LoVo colon cell line, SRB; assay type: cell-based; conditions: read-out: Inhibition of LoVo
Protocol: Cytotoxicity Assay Using LoVo Colon Cell Line: • 1. LoVo Colon cell lines were cultured in RPMI 1640 medium (Gibco/Invitrogen Life Sciences) supplemented with 10% fetal bovine serum (FBS, Gibco) and 50 μg/ml entamicin (Gibco). Cells were maintained at 37° C. under 7% CO2. • 2. Cells were seeded in 96-well microtiter plates (Corning/Costar) in a volume of 0.15 ml of growth medium (4000 cells/well). Plates were incubated at 37° C. overnight (18-24 hours). • 3. Serial dilutions of the test agent were added to each well. Dilutions were prepared in growth medium. One of two dose ranges was used: 5 pM to 20 μM or 170 pg/ml to 10 μg/ml. Cells were incubated with the test compounds for 4 days at 37° C. • 4. Surviving cells were processed using the SRB asay, as described above.
5. The drug concentration that inhibits cell proliferation by 50% relative to untreated controls (IC50) was determined from cytotoxicity curves using the LSW Toolbox graphing application.

[2] = tested on: 80S14 (p21-deficient) cells; experiment: Cytotoxicity assay using isogenic cell lines: IC50 in 80S14 (p21-deficient) cells, SRB; assay type: cell-based, human
Summary of the method: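 80S14 (p21-deficient) cells seeded at 12,000 cells/well overnight, then exposed 5 days at 37 °C to serial dilutions (5 pM–50 μM or 170 pg/ml–10 μg/ml). TCA-fixed, sulforhodamine B-stained, absorbance at 560 nm; IC50 taken from cytotoxicity curves versus untreated controls.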

[3] = Homo sapiens, 96 h, Cellular activity in LoVo cell, 4 days incubation, SRB
[4] = Homo sapiens, 120 h, 80S14 (p21-deficient) cells, 5 days, SRB, class symbols, read-out: IC50 for 80S14
[5] = Homo sapiens, 80S14, 120 h, read-out: IC50 for 80S14 (uM)
[6] = Homo sapiens, 96 h, LoVo colon cells, 4 days incubation, SRB
[7] = Homo sapiens, 120 h, 80S14 p21-deficient cells, 5 days incubation, SRB, read-out: IC50 for 80SI4

## CCCCNC(=S)Nc1cccc(-c2ccnc3c(C(=O)c4cccs4)cnn23)c1 [Example 364, N-Butyl-N′-{3-[3-(thien-2-ylcarbonyl)pyrazolo[1,5-a]pyrimidin-7-yl]phenyl}thiourea]
[1]; [3]
  IC50: < 100 nM
[2]; [4]
  IC50: < 1 µM

## CC(C)C(=O)Nc1cccc(-c2ccnc3c(C(=O)c4cccs4)cnn23)c1 [Example 273, 2-Methyl-N-{3-[3-(2-thienylcarbonyl)pyrazolo[1,5-a]pyrimidin-7-yl]phenyl}propanamide]
[1]; Homo sapiens, LoVo, 96 h
  IC50: 100 to 1000 nM
[2]; [5]
  IC50: < 1 µM

## Cc1cc(C)cc(-c2cnn3c(-c4cccc(-c5nnn(CC6CCC6)n5)c4)ccnc23)c1 [Example 492, 7-{3-[2-(Cyclobutylmethyl)-2H-tetraazol-5-yl]phenyl}-3-(3,5-dimethylphenyl)pyrazolo[1,5-a]pyrimidine]
[1]; [3]
  IC50: 100 to 1000 nM
[2]; [4]
  IC50: 1 to 10 µM

## CCN(CC)C(=O)Nc1cccc(-c2ccnc3c(C(=O)c4cccs4)cnn23)c1 [Example 159, N,N-diethyl-N′-{3-[3-(thien-2-ylcarbonyl)pyrazolo[1,5-a]pyrimidin-7-yl]phenyl}urea]
[1]; [6]
  IC50: 100 to 1000 nM
[2]; [7]
  IC50: 1 to 10 µM

## Cc1cc(-c2cccc(NC(=O)OC(C)C)c2)n2ncc(C(=O)c3cccs3)c2n1 [Example 197, isopropyl 3-[5-methyl-3-(thien-2-ylcarbonyl)pyrazolo[1,5-a]pyrimidin-7-yl]phenylcarbamate]
[1]; [6]
  IC50: < 100 nM
[2]; [7]
  IC50: < 1 µM

## CC(C)CC(=O)Nc1cc(-c2ccnc3c(C(=O)c4cccs4)cnn23)ccc1F [Example 342, N-{2-Fluoro-5-[3-(thien-2-ylcarbonyl)pyrazolo[1,5-a]pyrimidin-7-yl]phenyl}-3-methylbutanamide]
[1]; Homo sapiens, LoVo, 96 h
  IC50: < 100 nM
[2]; [5]
  IC50: < 1 µM

## CC(C)CC(=O)Nc1cc(-c2ccnc3c(C(=O)c4cccs4)cnn23)cs1 [Example 351, 3-Methyl-N-{4-[3-(thien-2-ylcarbonyl)pyrazolo[1,5-a]pyrimidin-7-yl]thien-2-yl}butanamide]
[1]; [3]
  IC50: 1000 to 20000 nM
[2]; [4]
  IC50: 1 to 10 µM

## CC(C)CC(=O)Nc1cccc(-c2ccnc3c(-c4cccc(Cl)c4Cl)cnn23)c1 [Example 473, N-{3-[3-(2,3-Dichlorophenyl)pyrazolo[1,5-a]pyrimidin-7-yl]phenyl}-3-methylbutanamide]
[1]; [3]
  IC50: 100 to 1000 nM
[2]; [4]
  IC50: 1 to 10 µM

## Cc1cc(-c2cccc(NC(=O)CC(C)C)c2)n2ncc(C(=O)c3cccs3)c2n1 [Example 201, 3-methyl-N-{3-[5-methyl-3-(thien-2-ylcarbonyl)pyrazolo[1,5-a]pyrimidin-7-yl]phenyl}butanamide]
[1]; [6]
  IC50: < 100 nM
[2]; [7]
  IC50: < 1 µM

## Cc1cc(C)cc(-c2cnn3c(-c4cccc(-c5nnn(Cc6ccccn6)n5)c4)ccnc23)c1 [Example 495, 3-(3,5-Dimethylphenyl)-7-{3-[2-(pyridin-2-ylmethyl)-2H-tetrazol-5-yl]phenyl}pyrazolo[1,5-a]pyrimidine]
[1]; [3]
  IC50: 100 to 1000 nM
[2]; [4]
  IC50: 10 to 50 µM

## CCn1nnc(-c2cccc(-c3ccnc4c(C(=O)c5cccs5)cnn34)c2)n1 [Example 502, {7-[3-(2-Ethyl-2H-tetraazol-5-yl)phenyl]pyrazolo[1,5-a]pyrimidin-3-yl}(thien-2-yl)methanone]
[1]; [3]
  IC50: 100 to 1000 nM
[2]; [4]
  IC50: 1 to 10 µM

## CN(C)Cc1ccc(-c2cccc(-c3ccnc4c(C(=O)c5cccs5)cnn34)c2)cc1 [Example 463, (7-{4′-[(Dimethylamino)methyl]-1,1′-biphenyl-3-yl}pyrazolo[1,5-a]pyrimidin-3-yl)(thien-2-yl)methanone]
[1]; [3]
  IC50: < 100 nM
[2]; [4]
  IC50: < 1 µM

## C=C(CC)CNc1cccc(-c2ccnc3c(C(=O)c4cccs4)cnn23)c1 [Example 435, (7-{3-[(2-Ethylprop-2-enyl)amino]phenyl}pyrazolo[1,5-a]pyrimidin-3-yl)(thien-2-yl)methanone]
[1]; [3]
  IC50: 100 to 1000 nM
[2]; [4]
  IC50: 1 to 10 µM

## CC#CC(=O)Nc1cccc(-c2ccnc3c(C(=O)c4cccs4)cnn23)c1 [Example 274, N-{3-[3-(2-Thienylcarbonyl)pyrazolo[1,5-a]pyrimidin-7-yl]phenyl}-2-butynamide]
[1]; [3]
  IC50: < 100 nM
[2]; [4]
  IC50: < 1 µM

## O=C(O)CCCC(=O)Nc1cccc(-c2ccnc3c(C(=O)c4cccs4)cnn23)c1 [Example 444, 5-Oxo-5-({3-[3-(thien-2-ylcarbonyl)pyrazolo[1,5-a]pyrimidin-7-yl]phenyl}amino)pentanoic acid]
[1]; [3]
  IC50: 1000 to 20000 nM
[2]; [4]
  IC50: 10 to 50 µM

## (7-{3-[1-(Pyridin-2-ylmethyl)-1H-pyrazol-3-yl]phenyl}pyrazolo[1,5-a]pyrimidin-3-yl)(thien-2-yl)methanone [Example 516]
[1]; Cellular activity in LoVo cell, 4 days incubation, SRB
  IC50: < 100 nM
[2]; 80S14 (p21-deficient) cells, 5 days, SRB, class symbols, read-out: IC50 for 80S14
  IC50: < 1 µM

## CC(C)CC(=O)Nc1cccc(-c2ccnc3c(-c4cccc(C=O)c4)cnn23)c1 [Example 487, N-{3-[3-(3-Formylphenyl)pyrazolo[1,5-a]pyrimidin-7-yl]phenyl}-3-methylbutanamide]
[1]; [3]
  IC50: 1000 to 20000 nM
[2]; [4]
  IC50: 10 to 50 µM

## CC(C)NC(=S)Nc1cccc(-c2ccnc3c(C(=O)c4cccs4)cnn23)c1 [Example 389, N-Isopropyl-N′-{3-[3-(thien-2-ylcarbonyl)pyrazolo[1,5-a]pyrimidin-7-yl]phenyl}thiourea]
[1]; [3]
  IC50: < 100 nM
[2]; [4]
  IC50: < 1 µM

## O=C(Nc1cc(-c2ccnc3c(C(=O)c4cccs4)cnn23)ccc1F)c1c(F)cccc1F [Example 374, 2,6-Difluoro-N-{2-fluoro-5-[3-(thien-2-ylcarbonyl)pyrazolo[1,5-a]pyrimidin-7-yl]phenyl}benzamide]
[1]; [3]
  IC50: < 100 nM
[2]; [4]
  IC50: < 1 µM

## O=C(Nc1cccc(-c2ccnc3c(C(=O)c4cccs4)cnn23)c1)c1c(F)cccc1F [Example 359, 2,6-Difluoro-N-{3-[3-(thien-2-ylcarbonyl)pyrazolo[1,5-a]pyrimidin-7-yl]phenyl}benzamide]
[1]; [3]
  IC50: < 100 nM
[2]; [4]
  IC50: < 1 µM

## CCOc1cccc(-c2cnn3c(-c4cccc(NC(=O)CC(C)C)c4)ccnc23)c1 [Example 479, N-{3-[3-(3-Ethoxyphenyl)pyrazolo[1,5-a]pyrimidin-7-yl]phenyl}-3-methylbutanamide]
[1]; [3]
  IC50: 1000 to 20000 nM
[2]; [4]
  IC50: 10 to 50 µM

## CN(C)C(=O)Nc1cccc(-c2ccnc3c(C(=O)c4cccs4)cnn23)c1 [Example 46, N,N-dimethyl-N′-{3-[3-(thien-2-ylcarbonyl)pyrazolo[1,5-a]pyrimidin-7-yl]phenyl}urea]
[1]; [6]
  IC50: 1000 to 2000 nM
[2]; [7]
  IC50: 1 to 10 µM

## CC(C)OC(=O)Nc1cccc(-c2ccnc3c(C(=O)c4ccsc4)cnn23)c1 [Example 293, Isopropyl 3-[3-(3-thienylcarbonyl)pyrazolo[1,5-a]pyrimidin-7-yl]phenylcarbamate]
[1]; Homo sapiens, LoVo, 96 h
  IC50: < 100 nM
[2]; [5]
  IC50: < 1 µM

## O=C(c1cccs1)c1cnn2c(-c3cccc(-c4ccn(CC5CCC5)n4)c3)ccnc12 [Example 515, (7-{3-[1-(Cyclobutylmethyl)-1H-pyrazol-3-yl]phenyl}pyrazolo[1,5-a]pyrimidin-3-yl)(thien-2-yl)methanone]
[1]; [3]
  IC50: < 100 nM
[2]; [4]
  IC50: < 1 µM

## O=C(Nc1cccc(-c2ccnc3c(C(=O)c4cccs4)cnn23)c1)OC1CCCCC1 [Example 172, cyclohexyl 3-(3-(thien-2-ylcarbonyl)pyrazolo[1,5-a]pyrimidin-7-yl]phenylcarbamate]
[1]; [6]
  IC50: < 100 nM
[2]; [7]
  IC50: < 1 µM

## O=C(CC1CCNCC1)Nc1cccc(-c2ccnc3c(C(=O)c4cccs4)cnn23)c1 [Example 393, 2-Piperidin-4-yl-N-{3-[3-(thien-2-ylcarbonyl)pyrazolo[1,5-a]pyrimidin-7-yl]phenyl}acetamide]
[1]; [3]
  IC50: 100 to 1000 nM
[2]; [4]
  IC50: 1 to 10 µM

## COc1ccc(-c2cnn3c(-c4cccc(NC(=O)CC(C)C)c4)ccnc23)cc1 [Example 470, N-{3-[3-(4-Methoxyphenyl)pyrazolo[1,5-a]pyrimidin-7-yl]phenyl}-3-methylbutanamide]
[1]; [3]
  IC50: 1000 to 20000 nM
[2]; [4]
  IC50: 10 to 50 µM

## Cc1ccc(-c2ccnc3c(C(=O)c4cccs4)cnn23)cc1NC(=O)NC(C)C [Example 311, N-Isopropyl-N′-{2-methyl-5-[3-(2-thienylcarbonyl)pyrazolo[1,5-a]pyrimidin-7-yl]phenyl}urea]
[1]; [3]
  IC50: < 100 nM
[2]; [4]
  IC50: < 1 µM

## O=C(Nc1cccc(-c2ccnc3c(C(=O)c4cccs4)cnn23)c1)c1c(Cl)cccc1Cl [Example 384, 2,6-Dichloro-N-{3-[3-(thien-2-ylcarbonyl)pyrazolo[1,5-a]pyrimidin-7-yl]phenyl}benzamide]
[1]; [3]
  IC50: 100 to 1000 nM
[2]; [4]
  IC50: 1 to 10 µM

## CC(C)CC(=O)Nc1cccc(-c2ccnc3c(-c4cccc5cccnc45)cnn23)c1 [Example 468, 3-Methyl-N-[3-(3-quinolin-8-ylpyrazolo[1,5-a]pyrimidin-7-yl)phenyl]butanamide]
[1]; [3]
  IC50: 100 to 1000 nM
[2]; [4]
  IC50: 1 to 10 µM

## CC(C)CC(=O)Nc1cccc(-c2ccnc3c(-c4cccc(CN5CCOCC5)c4)cnn23)c1 [Example 488, 3-Methyl-N-(3-{3-[3-(morpholin-4-ylmethyl)phenyl]pyrazolo[1,5-a]pyrimidin-7-yl}phenyl)butanamide]
[1]; [3]
  IC50: 1000 to 20000 nM
[2]; [4]
  IC50: 10 to 50 µM
